Results reported in US20240300980A1, “HETEROCYCLIC COMPOUNDS AS KRAS INHIBITOR, AND PREPARATION THEREFOR AND USE THEREOF IN TREATMENT” (SHANGHAI KECHOW PHARMA, INC., priority 2021, published 2024).

system: AGS cells (KRAS^G12D); assay: Detection of cell proliferation in vitro by MTT/MTS method (cell activity experiment); format: cell-based; settings: Homo sapiens, AGS, 72 h, AGS cells; MTT/MTS; 3 days of drug treatment; read-out: AGS IC50
Procedure, shortened: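 KRAS G12D AGS cells seeded at 1000 per well, compound added 24 h later, 0.5% final DMSO. Viability read after 3 days of treatment by MTT (solubilised in DMSO) or MTS, 4 h, absorbance 490 nm. IC50 from dose–response curves versus DMSO control.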

Row | SMILES | IC50
1 | CC1Cc2cc(O)cc(-c3ncc4c(N5C[C@H]6CC[C@@H](C5)N6)nc(OC[C@@]56CCCN5C[C@H](F)C6)nc4c3F)c2C1 (stereo partly drawn) [Example 266, 7-(4-((1R,5S)-3,8-diazabicyclo[3.2.1]octan-3-yl)-8-fluoro-2-(((2R,7aS)-2-fluorotetrahydro-1H-pyrrolizin-7a(5H)-yl)methoxy)pyrido[4,3-d]pyrimidin-7-yl)-2-methyl-2,3-dihydro-1H-inden-5-ol] | 52 nM
2 | Oc1cc2c(c(-c3ncc4c(N5C[C@H]6CC[C@@H](C5)N6)nc(OC[C@@]56CCCN5C[C@H](F)C6)nc4c3F)c1)C(C1CC1)CC2 (stereo partly drawn) [Example 267, 7-(4-((1R,5S)-3,8-diazabicyclo[3.2.1]octan-3-yl)-8-fluoro-2-(((2R,7aS)-2-fluorotetrahydro-1H-pyrrolizin-7a(5H)-yl)methoxy)pyrido[4,3-d]pyrimidin-7-yl)-1-cyclopropyl-2,3-dihydro-1H-inden-5-ol] | 1050 nM
3 | CC(C)C1CCc2cc(O)cc(-c3ncc4c(N5C[C@H]6CC[C@@H](C5)N6)nc(OC[C@@]56CCCN5C[C@H](F)C6)nc4c3F)c21 (stereo partly drawn) [Example 268, 7-(4-((1R,5S)-3,8-diazabicyclo[3.2.1]octan-3-yl)-8-fluoro-2-(((2R,7aS)-2-fluorotetrahydro-1H-pyrrolizin-7a(5H)-yl)methoxy)pyrido[4,3-d]pyrimidin-7-yl)-1-isopropyl-2,3-dihydro-1H-inden-5-ol] | 4000 nM
4 | COC1CCc2cc(O)cc(-c3ncc4c(N5C[C@H]6CC[C@@H](C5)N6)nc(OC[C@@]56CCCN5C[C@H](F)C6)nc4c3F)c21 (stereo partly drawn) [Example 269, 7-(4-((1R,5S)-3,8-diazabicyclo[3.2.1]octan-3-yl)-8-fluoro-2-(((2R,7aS)-2-fluorotetrahydro-1H-pyrrolizin-7a(5H)-yl)methoxy)pyrido[4,3-d]pyrimidin-7-yl)-1-methoxy-2,3-dihydro-1H-inden-5-ol] | 30 nM
5 | COC1CCCc2cc(O)cc(-c3ncc4c(N5C[C@H]6CC[C@@H](C5)N6)nc(OC[C@@]56CCCN5C[C@H](F)C6)nc4c3F)c21 (stereo partly drawn) [Example 270, 4-(4-((1R,5S)-3,8-diazabicyclo[3.2.1]octan-3-yl)-8-fluoro-2-(((2R,7aS)-2-fluorotetrahydro-1H-pyrrolizin-7a(5H)-yl)methoxy)pyrido[4,3-d]pyrimidin-7-yl)-5-methoxy-5,6,7,8-tetrahydronaphthalen-2-ol] | 20 nM
6 | Oc1cc2c(c(-c3ncc4c(N5C[C@H]6CC[C@@H](C5)N6)nc(OC[C@@]56CCCN5C[C@H](F)C6)nc4c3F)c1)CCCC2 [Example 271, 4-(4-((1R,5S)-3,8-diazabicyclo[3.2.1]octan-3-yl)-8-fluoro-2-(((2R,7aS)-2-fluorotetrahydro-1H-pyrrolizin-7a(5H)-yl)methoxy)pyrido[4,3-d]pyrimidin-7-yl)-5,6,7,8-tetrahydronaphthalen-2-ol] | 11 nM
7 | Oc1cc2c(c(-c3ncc4c(N5C[C@H]6CC[C@@H](C5)N6)nc(OC[C@@]56CCCN5C[C@H](F)C6)nc4c3F)c1)C(F)CCC2 (stereo partly drawn) [Example 272, 4-(4-((1R,5S)-3,8-diazabicyclo[3.2.1]octan-3-yl)-8-fluoro-2-(((2R,7aS)-2-fluorotetrahydro-1H-pyrrolizin-7a(5H)-yl)methoxy)pyrido[4,3-d]pyrimidin-7-yl)-5-fluoro-5,6,7,8-tetrahydronaphthalen-2-ol] | 70 nM
8 | CN1CCc2cc(O)cc(-c3ncc4c(N5C[C@H]6CC[C@@H](C5)N6)nc(OC[C@@]56CCCN5C[C@H](F)C6)nc4c3F)c2C1=O [Example 273, 8-(4-((1R,5S)-3,8-diazabicyclo[3.2.1]octan-3-yl)-8-fluoro-2-(((2R,7aS)-2-fluorotetrahydro-1H-pyrrolizin-7a(5H)-yl)methoxy)pyrido[4,3-d]pyrimidin-7-yl)-6-hydroxy-2-methyl-3,4-dihydroisoquinolin-1(2H)-one] | > 2500 nM
9 | CCn1cnc2cc(O)cc(-c3ncc4c(N5C[C@H]6CC[C@@H](C5)N6)nc(OC[C@@]56CCCN5C[C@H](F)C6)nc4c3F)c21 [Example 278, 7-(4-((1R,5S)-3,8-diazabicyclo[3.2.1]octan-3-yl)-8-fluoro-2-(((2R,7aS)-2-fluorotetrahydro-1H-pyrrolizin-7a(5H)-yl)methoxy)pyrido[4,3-d]pyrimidin-7-yl)-1-ethyl-1H-benzo[d]imidazol-5-ol] | > 10000 nM
10 | Cn1cnc2cc(O)cc(-c3ncc4c(N5C[C@H]6CC[C@@H](C5)N6)nc(OC[C@@]56CCCN5C[C@H](F)C6)nc4c3F)c21 [Example 279, 7-(4-((1R,5S)-3,8-diazabicyclo[3.2.1]octan-3-yl)-8-fluoro-2-(((2R,7aS)-2-fluorotetrahydro-1H-pyrrolizin-7a(5H)-yl)methoxy)pyrido[4,3-d]pyrimidin-7-yl)-1-methyl-1H-benzo[d]imidazol-5-ol] | > 10000 nM
11 | CC12CC1CCc1cc(O)cc(-c3ccc4c(N5C[C@H]6CC[C@@H](C5)N6)nc(OC[C@@]56CCCN5C[C@H](F)C6)nc4c3F)c12 (stereo partly drawn) [Example 281, 7-(4-((1R,5S)-3,8-diazabicyclo[3.2.1]octan-3-yl)-8-fluoro-2-(((2R,7aS)-2-fluorotetrahydro-1H-pyrrolizin-7a(5H)-yl)methoxy)quinazolin-7-yl)-7b-methyl-1a, 2,3,7b-tetrahydro-1H-cyclopropa[a]naphthalen-5-ol] | 537 nM
12 | CC1CCCc2cc(O)cc(-c3ccc4c(N5C[C@H]6CC[C@@H](C5)N6)nc(OC[C@@]56CCCN5C[C@H](F)C6)nc4c3F)c21 (stereo partly drawn) [Example 282, 4-(4-((1R,5S)-3,8-diazabicyclo[3.2.1]octan-3-yl)-8-fluoro-2-(((2R,7aS)-2-fluorotetrahydro-1H-pyrrolizin-7a(5H)-yl)methoxy)quinazolin-7-yl)-5-methyl-5,6,7,8-tetrahydronaphthalen-2-ol] | 15 nM
13 | CCC1CCc2cc(O)cc(-c3ccc4c(N5C[C@H]6CC[C@@H](C5)N6)nc(OC[C@@]56CCCN5C[C@H](F)C6)nc4c3F)c21 (stereo partly drawn) [Example 283, 7-(4-((1R,5S)-3,8-diazabicyclo[3.2.1]octan-3-yl)-8-fluoro-2-(((2R,7aS)-2-fluorotetrahydro-1H-pyrrolizin-7a(5H)-yl)methoxy)quinazolin-7-yl)-1-ethyl-2,3-dihydro-1H-inden-5-ol] | 14 nM
14 | CC1CCc2cc(O)cc(-c3ccc4c(N5C[C@H]6CC[C@@H](C5)N6)nc(OC[C@@]56CCCN5C[C@H](F)C6)nc4c3F)c21 (stereo partly drawn) [Example 286, 7-(4-((1R,5S)-3,8-diazabicyclo[3.2.1]octan-3-yl)-8-fluoro-2-(((2R,7aS)-2-fluorotetrahydro-1H-pyrrolizin-7a(5H)-yl)methoxy)quinazolin-7-yl)-1-methyl-2,3-dihydro-1H-inden-5-ol] | 29 nM
15 | CCC1CCCc2cc(O)cc(-c3ccc4c(N5C[C@H]6CC[C@@H](C5)N6)nc(OC[C@@]56CCCN5C[C@H](F)C6)nc4c3F)c21 (stereo partly drawn) [Example 289, 4-(4-((1R,5S)-3,8-diazabicyclo[3.2.1]octan-3-yl)-8-fluoro-2-(((2R,7aS)-2-fluorotetrahydro-1H-pyrrolizin-7a(5H)-yl)methoxy)quinazolin-7-yl)-5-ethyl-5,6,7,8-tetrahydronaphthalen-2-ol] | 15 nM
16 | CCC1COc2cc(O)cc(-c3ccc4c(N5C[C@H]6CC[C@@H](C5)N6)nc(OC[C@@]56CCCN5C[C@H](F)C6)nc4c3F)c21 (stereo partly drawn) [Example 292, 4-(4-((1R,5S)-3,8-diazabicyclo[3.2.1]octan-3-yl)-8-fluoro-2-(((2R,7aS)-2-fluorotetrahydro-1H-pyrrolizin-7a(5H)-yl)methoxy)quinazolin-7-yl)-3-ethyl-2,3-dihydrobenzofuran-6-ol] | 40 nM
17 | CCc1coc2cc(O)cc(-c3ccc4c(N5C[C@H]6CC[C@@H](C5)N6)nc(OC[C@@]56CCCN5C[C@H](F)C6)nc4c3F)c12 [Example 293, 4-(4-((1R,5S)-3,8-diazabicyclo[3.2.1]octan-3-yl)-8-fluoro-2-(((2R,7aS)-2-fluorotetrahydro-1H-pyrrolizin-7a(5H)-yl)methoxy)quinazolin-7-yl)-3-ethylbenzofuran-6-ol] | 121 nM
18 | Oc1cc(-c2ccc3c(N4C[C@H]5CC[C@@H](C4)N5)nc(OC[C@@]45CCCN4C[C@H](F)C5)nc3c2F)c2c(c1)C1CC1C2 (stereo partly drawn) [Example 294, 5-(4-((1R,5S)-3,8-diazabicyclo[3.2.1]octan-3-yl)-8-fluoro-2-(((2R,7aS)-2-fluorotetrahydro-1H-pyrrolizin-7a(5H)-yl)methoxy)quinazolin-7-yl)-1,1a,6,6a-tetrahydrocyclopropa[a]inden-3-ol] | 65 nM
19 | Oc1cc2c(c(-c3ccc4c(N5C[C@H]6CC[C@@H](C5)N6)nc(OC[C@@]56CCCN5C[C@H](F)C6)nc4c3F)c1)C1CC1CC2 (stereo partly drawn) [Example 295, 7-(4-((1R,5S)-3,8-diazabicyclo[3.2.1]octan-3-yl)-8-fluoro-2-(((2R,7aS)-2-fluorotetrahydro-1H-pyrrolizin-7a(5H)-yl)methoxy)quinazolin-7-yl)-1a,2,3,7b-tetrahydro-1H-cyclopropa[a]naphthalen-5-ol] | 183 nM
20 | O=C1CCCc2cc(O)cc(-c3ccc4c(N5C[C@H]6CC[C@@H](C5)N6)nc(OC[C@@]56CCCN5C[C@H](F)C6)nc4c3F)c21 [Example 296, 8-(4-((1R,5S)-3,8-diazabicyclo[3.2.1]octan-3-yl)-8-fluoro-2-(((2R,7aS)-2-fluorotetrahydro-1H-pyrrolizin-7a(5H)-yl)methoxy)quinazolin-7-yl)-6-hydroxy-3,4-dihydronaphthalen-1(2H)-one] | > 2500 nM
21 | O=C1CCc2cc(O)cc(-c3ccc4c(N5C[C@H]6CC[C@@H](C5)N6)nc(OC[C@@]56CCCN5C[C@H](F)C6)nc4c3F)c21 [Example 297, 7-(4-((1R,5S)-3,8-diazabicyclo[3.2.1]octan-3-yl)-8-fluoro-2-(((2R,7aS)-2-fluorotetrahydro-1H-pyrrolizin-7a(5H)-yl)methoxy)quinazolin-7-yl)-5-hydroxy-2,3-dihydro-1H-inden-1-one] | > 2500 nM
